Results reported in patent publication US20090023784A1, “USE OF DEFERIPRONE AND METHODS TO TREAT AND/OR PREVENT FRIEDREICH ATAXIA RESULTING FROM INTRACELLULAR MISHANDLING OF IRON” (priority 2006, published 2009).
Entries after “also recorded” stand apart in the source; their conditions may differ.

System: patients with Friedreich ataxia
Experiment: Phase I-II open pilot trial: ICARS, Perdue Pegboard and parents' observations (patients kept on idebenone)
Assay type: in vivo, human
Conditions: for Perdue pegboard: number of nails inserted
Description: Ten adolescents (four males, six females aged 14 to 23 yrs) with a diagnosis of Friedreich ataxia, confirmed by detection of a trinucleotide-repeat expansion in the first intron of the frataxin gene, were studied. Patients received deferiprone (Ferriprox™, Apotex Inc., Toronto, Canada) orally, in two doses for 1-5 months. Three patients were included, sequentially, for a minimum period of two months at each dose. Patient enrollment was staggered by two-weeks to enable monitoring of response. In the absence of toxicity, and with evidence of efficacy in any of the first 3 patients, a second group of 3 patients would be included at the same dose for a total duration of 6 months. If there was an absence of both efficacy and toxicity, the second group of three patients would be administered a higher dose. If toxicity developed, the current dose would be suspended and the trial resumed with the next group of patients at a lower dose. The patients were on idebenone (10 mg/kg/day, in three doses) for at least two years prior to inclusion and were kept on the drug at the same dose for the duration of the trial. MRI examinations were done at inclusion and at 1, 2, 4 and 6 months. The protocol was promoted by Assistance Publique-Hopitaux de Paris and approved by the local ethical committee and registered at the National Health Authority (AFSSAPS) and at the International Protocol Registration System (www.clinicaltrials.gov). A written informed consent was obtained from patients and parents.
The International Cooperative Ataxia Rating Score (ICARS) was used to assess the symptoms of ataxia before and after 1-5 months (Cano et al. International cooperative ataxia rating scale (ICARS): Appropriate for studies of Friedreich's ataxia? Mov Disord 2005; 20:1585-91). This scale has four subscales: posture and gait disturbance, kinetic functions, speech disorders and oculomotor disorders. Subscale scores are summed to give a total score ranging from 0 to 100. High scores indicated worse ataxia. The Perdue Pegboard test, which assesses speed of performance, delicate movements and manipulative dexterity, was included in the course of the study. This test assesses the ability of the participant to insert as many nails as possible into preset holes, linearly dug in a wooden board in a limited space of time (20 seconds with the two hands, separately and together). The tests were administered by the same investigator. Patients were monitored for neutropenia, agranulocytosis, musculoskeletal pains and zinc deficiency and had weekly blood counts, plasma iron, serum ferritin and transferrin concentration measurements, as well as assessments of renal and liver function.

[1] = patient eight, DFP 20 mg/kg, 4 mth, after trial
[2] = patient eight, DFP 20 mg/kg, 4 mth, prior to trial
[3] = patient five, DFP 30 mg/kg, 1 mth, after trial
[4] = patient five, DFP 30 mg/kg, 1 mth, prior to trial
[5] = patient four, DFP 20 mg/kg, 2 mth, after trial
[6] = patient four, DFP 20 mg/kg, 2 mth, prior to trial
[7] = patient one, DFP 20 mg/kg, 5 mth, after trial
[8] = patient one, DFP 20 mg/kg, 5 mth, prior to trial
[9] = patient six, DFP 30 mg/kg, 1 mth, after trial
[10] = patient six, DFP 30 mg/kg, 1 mth, prior to trial
[11] = patient three, DFP 20 mg/kg, 2 mth, after trial
[12] = patient three, DFP 20 mg/kg, 2 mth, prior to trial
[13] = patient two, DFP 20 mg/kg, 3 mth, after trial
[14] = patient two, DFP 20 mg/kg, 3 mth, prior to trial

SMILES: Cc1c(O)c(=O)ccn1C [Deferiprone, 3-hydroxy-1,2-dimethylpyridin-4-one]
- time to disappearance of constipation, incontinence and some subjective signs of peripheral neuropathy (20 mg/kg/day oral): 1-2 months
- neurological condition noted by parents and uninformed relatives (20 mg/kg/day oral, within a few weeks, all treated patients): unexpected neurological improvement
- changes of the ICARS scores (20 mg/kg/day, short period of the trial): mild changes of the ICARS scores
- Perdue Pegboard test: speed of performances and dexterity (30 mg/kg/day oral, before and 1-2 months after onset): improvement of speed of performances and dexterity
- Kinetic function (/29) [1]: 7
- Oculomotor disorder (/6) [1]: 2
- Posture and gait disturbance: 7 items (/34) [1]: 9
- Posture and gait disturbance: gait speed [1]: 1
- Posture and gait disturbance: spread feet [1]: 3
- Posture and gait disturbance: standing eyes open [1]: 1
- Posture and gait disturbance: walking [1]: 2
- Speech disorder (/8) [1]: 2
- Total ICARS (/100) [1]: 20
- Observation (patient eight, DFP 20 mg/kg, 4 mth, listed as DFP): no more incontinence, improved gait and balance, warming; also recorded: up of feet
- Kinetic function (/29) [2]: 7
- Oculomotor disorder (/6) [2]: 2
- Posture and gait disturbance: 7 items (/34) [2]: 12
- Posture and gait disturbance: gait speed [2]: 1
- Posture and gait disturbance: spread feet [2]: 3
- Posture and gait disturbance: standing eyes open [2]: 2
- Posture and gait disturbance: walking [2]: 3
- Speech disorder (/8) [2]: 2
- Total ICARS (/100) [2]: 23
- Kinetic function (/29) [3]: 8
- Oculomotor disorder (/6) [3]: 2
- Posture and gait disturbance: 7 items (/34) [3]: 8
- Posture and gait disturbance: gait speed [3]: 2
- Posture and gait disturbance: spread feet [3]: 0
- Posture and gait disturbance: standing eyes open [3]: 1
- Posture and gait disturbance: walking [3]: 2
- Speech disorder (/8) [3]: 2
- Total ICARS (/100) [3]: 20
- Observation (patient five, DFP 30 mg/kg, 1 mth, listed as DFP): no more constipation, incontinence and bending, improved; also recorded: balance and gait
- Kinetic function (/29) [4]: 8
- Oculomotor disorder (/6) [4]: 2
- Posture and gait disturbance: 7 items (/34) [4]: 11
- Posture and gait disturbance: gait speed [4]: 2
- Posture and gait disturbance: spread feet [4]: 1
- Posture and gait disturbance: standing eyes open [4]: 2
- Posture and gait disturbance: walking [4]: 2
- Speech disorder (/8) [4]: 2
- Total ICARS (/100) [4]: 23
- Kinetic function (/29) [5]: 12
- Oculomotor disorder (/6) [5]: 0
- Posture and gait disturbance: 7 items (/34) [5]: 13
- Posture and gait disturbance: gait speed [5]: 1
- Posture and gait disturbance: spread feet [5]: 2
- Posture and gait disturbance: standing eyes open [5]: 1
- Posture and gait disturbance: walking [5]: 3
- Speech disorder (/8) [5]: 2
- Total ICARS (/100) [5]: 27
- Perdue pegboard [5]: 29
- Perdue pegboard [6]: 37
- Kinetic function (/29) [6]: 13
- Oculomotor disorder (/6) [6]: 0
- Posture and gait disturbance: 7 items (/34) [6]: 16
- Posture and gait disturbance: gait speed [6]: 1
- Posture and gait disturbance: spread feet [6]: 2
- Posture and gait disturbance: standing eyes open [6]: 3
- Posture and gait disturbance: walking [6]: 3
- Speech disorder (/8) [6]: 2
- Total ICARS (/100) [6]: 31
- Kinetic function (/29) [7]: 7
- Oculomotor disorder (/6) [7]: 2
- Posture and gait disturbance: 7 items (/34) [7]: 27
- Posture and gait disturbance: gait speed [7]: 3
- Posture and gait disturbance: spread feet [7]: 2
- Posture and gait disturbance: standing eyes open [7]: 4
- Posture and gait disturbance: walking [7]: 7
- Speech disorder (/8) [7]: 0
- Total ICARS (/100) [7]: 37
- Observation (patient one, DFP 20 mg/kg, 5 mth, listed as DFP): improved gait, writing, delicate movements, can move them; also recorded: toes, feels their feet, warming up of feet
- Kinetic function (/29) [8]: 8
- Oculomotor disorder (/6) [8]: 2
- Posture and gait disturbance: 7 items (/34) [8]: 28
- Posture and gait disturbance: gait speed [8]: 3
- Posture and gait disturbance: spread feet [8]: 3
- Posture and gait disturbance: standing eyes open [8]: 4
- Posture and gait disturbance: walking [8]: 7
- Speech disorder (/8) [8]: 1
- Total ICARS (/100) [8]: 39
- Observation (patient seven, DFP 20 mg/kg, 5 mth, listed as DFP): improved gait, writing, delicate movements, can move them; also recorded: toes, feels their feet, warming up of feet
- Observation (patient six, DFP 30 mg/kg, 1 mth): improved gait and standing, no more constipation
- Kinetic function (/29) [9]: 9
- Oculomotor disorder (/6) [9]: 0
- Posture and gait disturbance: 7 items (/34) [9]: 17
- Posture and gait disturbance: gait speed [9]: 1
- Posture and gait disturbance: spread feet [9]: 2
- Posture and gait disturbance: standing eyes open [9]: 2
- Posture and gait disturbance: walking [9]: 7
- Speech disorder (/8) [9]: 0
- Total ICARS (/100) [9]: 26
- Perdue pegboard [9]: 39
- Perdue pegboard [10]: 52
- Kinetic function (/29) [10]: 9
- Oculomotor disorder (/6) [10]: 0
- Posture and gait disturbance: 7 items (/34) [10]: 20
- Posture and gait disturbance: gait speed [10]: 1
- Posture and gait disturbance: spread feet [10]: 2
- Posture and gait disturbance: standing eyes open [10]: 3
- Posture and gait disturbance: walking [10]: 7
- Speech disorder (/8) [10]: 0
- Total ICARS (/100) [10]: 29
- Kinetic function (/29) [11]: 11
- Oculomotor disorder (/6) [11]: 0
- Posture and gait disturbance: 7 items (/34) [11]: 16
- Posture and gait disturbance: gait speed [11]: 2
- Posture and gait disturbance: spread feet [11]: 3
- Posture and gait disturbance: standing eyes open [11]: 4
- Posture and gait disturbance: walking [11]: 7
- Speech disorder (/8) [11]: 2
- Total ICARS (/100) [11]: 29
- Perdue pegboard [11]: 44
- Perdue pegboard [12]: 37
- Kinetic function (/29) [12]: 11
- Oculomotor disorder (/6) [12]: 0
- Posture and gait disturbance: 7 items (/34) [12]: 17
- Posture and gait disturbance: gait speed [12]: 2
- Posture and gait disturbance: spread feet [12]: 3
- Posture and gait disturbance: standing eyes open [12]: 5
- Posture and gait disturbance: walking [12]: 7
- Speech disorder (/8) [12]: 3
- Total ICARS (/100) [12]: 31
- Observation (patient two, DFP 20 mg/kg, 3 mth): no more fatigue, improved delicate movements
- Kinetic function (/29) [13]: 21
- Oculomotor disorder (/6) [13]: 2
- Posture and gait disturbance: 7 items (/34) [13]: 32
- Posture and gait disturbance: gait speed [13]: 4
- Posture and gait disturbance: spread feet [13]: 4
- Posture and gait disturbance: standing eyes open [13]: 6
- Posture and gait disturbance: walking [13]: 7
- Speech disorder (/8) [13]: 4
- Total ICARS (/100) [13]: 59
- Kinetic function (/29) [14]: 21
- Oculomotor disorder (/6) [14]: 3
- Posture and gait disturbance: 7 items (/34) [14]: 33
- Posture and gait disturbance: gait speed [14]: 4
- Posture and gait disturbance: spread feet [14]: 4
- Posture and gait disturbance: standing eyes open [14]: 6
- Posture and gait disturbance: walking [14]: 7
- Speech disorder (/8) [14]: 4
- Total ICARS (/100) [14]: 61
